Measurements reported in US20060223891A1, “Use of alverine, alone or in combination with a tricyclic antidepressant or an antidepressant which is a specific inhibitor of serotonin reuptake for treatment of depression” (CEREP, priority 2003, published 2006).
“And” between values parts separate entries of the source, which are not always exact repeats. Equal entries are not always repeated. “Also recorded” adds a separate entry of the source. Structures can show the parent of a compound that is named as a salt. Blank lines part the entries; values can stand above or below the compound they belong to.

What was measured:
Assay type in all cases: in vivo
[1] = test system: Swiss mice CD1; test: forced swimming test, Alverine associated with imipramine, intraperitoneally (Example 3, test no. 1); design: key to Dunnett test: * indicates a significant difference for p < 0.05 (Dunnett test); ns indicates an insignificant result; conditions: for immobility time, individual mice / immobility time, Average / % of variation of immobility time / Dunnett test: intraperitoneally; for immobility time, individual mice / immobility time, Average: 30 minutes prior to the test; for immobility time, Average: n = 10; for % of variation of immobility time: vs average of excipient group; for Dunnett test: vs excipient group; for duration of immobilisation as compared to the sample group (in words): tested alone at 3 mg/kg
Description: (§1) The treatments are co-administered 30 minutes prior to the test in a coded and random order intraperitoneally with a volume of 10 ml/kg (5 ml/kg for each administration). Thirty minutes following administration the six groups of mice are subjected to the forced swimming test, in a vertical Plexiglas cylinder (height 24 cm, diameter 9 cm) containing water (height 6 cm, temperature 18-22° C.). The total duration of immobility is measured over the last four minutes of the test, six minutes in total. A mouse is deemed immobile when it ceases struggling and floats in the water without movements superfluous to those allowing it to keep its. head above water. A drop in immobility time is the reflection of an antidepressant effect. The results are expressed in total duration of immobility in seconds and as a percentage of variation of the total duration of immobility calculated from the average value of the sample group. The statistical significance between two treated groups is determined by using a Student test (P<0.05). The data are analysed using <<SigmaStat>> software.

[2] = test system: Swiss mice CD1; test: forced swimming test, Alverine administered orally (Example 2); design: key to Dunnett test: * indicates a significant difference for p < 0.05 (Dunnett test); ns indicates an insignificant result; conditions: for immobility time, individual mice / immobility time, Average: 60 minutes prior to the test; for immobility time, Average: N = 10; for % of variation of immobility time: vs average of excipient group; for Dunnett test: vs excipient group
Description: Antidepressive Activity Test on Alverine administered orally on a batch of mice.
To establish the advantages according to the present invention a study, was carried out on a batch of 50 mice. They were divided into 5 groups of 10 mice each. These are Swiss mice CD1 (CD-1® (ICR) IGS (Charles River France) weighing between 25 and 35 g.
The substance to be tested is Alverine citrate (Sigma, in the form of dry powder, with a salt/base ratio of 1.68) comparatively to imipramine chlorhydrate (Sigma, in the form of dry powder, with a salt/base ratio of 1.13).
The fifth group is treated with imipramine (tricyclic antidepressant) at a dose of 30 mg/kg The doses are expressed in terms of free active substances. The substances are prepared extemporaneously in the excipient. […]
One hour following administration the five groups of mice are subjected to the forced swimming test, in a vertical Plexiglas cylinder (height 24 cm, diameter 9 cm) containing water (height 6 cm, temperature 18-22° C.). The total duration of immobility is measured over the last four minutes of the test, six minutes in total. A mouse is deemed immobile when it ceases struggling and floats in the water without movements superfluous to those allowing it to keep its head above water. A drop in immobility time is the reflection of an antidepressant effect.
The results are expressed in total duration of immobility in seconds and as a percentage of variation of the total duration of immobility calculated from the average value of the sample group.
The statistical significance between the treated groups and the sample group is determined by a Dunnett test using the residual variation according to analysis of the. variance (P<0.05). The data are analysed using <<SigmaStat>> software.

[3] = test system: Swiss mice CD1; test: forced swimming test, Alverine administered intraperitoneally (Example 1); design: key to Dunnett test: * indicates a significant difference for p < 0.05 (Dunnett test); ns indicates an insignificant result; conditions: for immobility time, individual mice / immobility time, Average: 30 minutes prior to the test; for immobility time, Average: N = 10; for % of variation of immobility time: vs average of excipient group; for Dunnett test: vs excipient group
Description: Antidepressive Activity Test on Alverine administered intraperitoneally on a batch of mice. To establish the advantages according to the present invention a study was carried out on a batch of 50 mice. They were divided into 5 groups of 10 mice each. These are Swiss mice CD1 (CD-1®(ICR) IGS (Charles River France) weighing between 25 and 35 g. The substance to be tested is Alverine citrate (Sigma, in the form of dry powder, with a salt/base ratio of 1.68) comparatively to imipramine chlorhydrate (Sigma, in the form of dry powder, with a salt/base ratio of 1.13). The doses are expressed in terms of free active substances. The substances are prepared extemporaneously in the excipient. The treatments are administered 30 minutes prior to the test in a coded and random order intraperitoneally with a volume of 10 ml/kg. Thirty minutes following administration the five groups of mice are subjected to the forced swimming test, in a vertical Plexiglas cylinder (height 24 cm, diameter 9 cm) containing water (height 6 cm, temperature 18-22° C.). The total duration of immobility is measured over the last four minutes of the test, six minutes in total. A mouse is deemed immobile when it ceases struggling and floats in the water without movements superfluous to those allowing it to keep its head above water. A drop in immobility time is the reflection of an antidepressant effect. The results are expressed in total duration of immobility in seconds and as a percentage of variation of the total duration of immobility calculated from the average value of the sample group. The statistical significance between the treated groups and the sample group is determined by a Dunnett test using the residual variation according to analysis of the variance (P<0.05). The data are analysed using <<SigmaStat>> software. The results obtained are presented in the form of the following table, and in the form of a histogram, in FIG. 1.

[4] = test system: Swiss mice CD1; test: forced swimming test, Alverine associated with fluoxetine, intraperitoneally (Example 3, test no. 2); conditions: for immobility time, individual mice / immobility time, Average: 30 minutes prior to the test; for immobility time, Average: n = 10; for % of variation of immobility time: vs average of excipient group; for duration of immobilisation as compared to the sample group (in words): tested alone at 3 mg/kg
Description: as §1, with “Thirty minutes following administration the six groups of mice are subjected to the forced swimming test, in a vertical Plexiglas cylinder (height 24 cm, diameter 9 cm) containing water (height 6 cm, temperature 18-22° C.).” left out

[5] = 3 mg/kg alone, intraperitoneally
[6] = 10 mg/kg alone, intraperitoneally

- secondary effect observed ([2]; mice treated orally, 10 to 100 mg/kg): no secondary effect was observed
SMILES: CCN(CCCc1ccccc1)CCCc1ccccc1 [Alverine citrate, N-ethyl-3,3′-diphenyldipropylamine]
- immobility time, individual mice ([1]; 3 mg/kg alone): 108 s and 134 s and 113 s and 65 s and 85 s and 73 s and 79 s and 125 s and 95 s and 140 s
- immobility time, Average ([1]; 3 mg/kg alone): 101.7 s
- % of variation of immobility time ([1]; 3 mg/kg alone): −30%
- Dunnett test ([1]; 3 mg/kg alone): ns
- immobility time, individual mice ([1]; 10 mg/kg alone): 28 s and 10 s and 1 s and 74 s and 22 s and 70 s and 69 s and 67 s and 42 s and 57 s
- immobility time, Average ([1]; 10 mg/kg alone): 44.0 s
- % of variation of immobility time ([1]; 10 mg/kg alone): −70%
- Dunnett test ([1]; 10 mg/kg alone): * (* indicates a significant difference for p < 0.05 (Dunnett test))
- duration of immobilisation as compared to the sample group (in words) [1]: decrease, statistically insignificant
- immobility time, individual mice ([2]; 10 mg/kg orally): 95 s and 104 s and 111 s and 126 s and 108 s and 78 s and 115 s and 106 s and 113 s and 86 s
- immobility time, Average ([2]; 10 mg/kg orally): 104.2 s
- % of variation of immobility time ([2]; 10 mg/kg orally): −30%
- Dunnett test ([2]; 10 mg/kg orally): ns
- immobility time, individual mice ([2]; 30 mg/kg orally): 80 sec and 64 sec and 70 sec and 105 sec (3×) and 41 sec and 63 sec and 113 sec and 104 sec
- immobility time, Average ([2]; 30 mg/kg orally): 85.0 s
- % of variation of immobility time ([2]; 30 mg/kg orally): −43%
- Dunnett test ([2]; 30 mg/kg orally): * (* indicates a significant difference for p < 0.05 (Dunnett test))
- immobility time, individual mice ([2]; 100 mg/kg orally): 129 s and 67 s and 6 s and 105 s and 75 s and 81 s and 5 s and 37 s and 32 s and 52 s
- immobility time, Average ([2]; 100 mg/kg orally): 58.9 s
- % of variation of immobility time ([2]; 100 mg/kg orally): −60%
- Dunnett test ([2]; 100 mg/kg orally): * (* indicates a significant difference for p < 0.05 (Dunnett test))
- antidepressant effect (in words) ([2]; orally, 10 to 100 mg/kg, mice): significant antidepressant effect; also recorded: antidepressant effect proportional to the dose
- immobility time, individual mice ([3]; 3 mg/kg intraperitoneally): 128 s and 82 s and 151 s and 132 s and 127 s and 88 s and 85 s and 99 s and 93 s and 118 s
- immobility time, Average ([3]; 3 mg/kg intraperitoneally): 110.3 s
- % of variation of immobility time ([3]; 3 mg/kg intraperitoneally): −15%
- Dunnett test ([3]; 3 mg/kg intraperitoneally): ns
- immobility time, individual mice ([3]; 10 mg/kg intraperitoneally): 29 s and 86 s and 28 s and 30 s and 90 s and 99 s and 65 s and 129 s and 57 s and 3 s
- immobility time, Average ([3]; 10 mg/kg intraperitoneally): 61.6 s
- % of variation of immobility time ([3]; 10 mg/kg intraperitoneally): −53%
- Dunnett test ([3]; 10 mg/kg intraperitoneally): * (* indicates a significant difference for p < 0.05 (Dunnett test))
- immobility time, individual mice ([3]; 30 mg/kg intraperitoneally): 97 sec and 3 sec and 66 sec and 36 sec and 0 sec and 15 sec and 7 sec (2×) and 16 sec and 12 sec
- immobility time, Average ([3]; 30 mg/kg intraperitoneally): 25.9 s
- % of variation of immobility time ([3]; 30 mg/kg intraperitoneally): −80%
- Dunnett test ([3]; 30 mg/kg intraperitoneally): * (* indicates a significant difference for p < 0.05 (Dunnett test))
- antidepressant effect (in words) ([3]; injected intraperitoneally, 3 to 30 mg/kg, mice): antidepressant effect proportional to the dose; also recorded: significant antidepressant effect
- immobility time, individual mice [4, 5]: 119 sec and 138 sec and 117 sec (2×) and 110 sec and 73 sec and 47 sec and 124 sec and 72 sec and 32 sec
- immobility time, Average [4, 5]: 94.9 s
- % of variation of immobility time [4, 5]: −37%
- immobility time, individual mice [4, 6]: 63 sec and 75 sec (2×) and 77 sec and 46 sec and 6 sec and 113 sec and 89 sec and 104 sec and 125 sec
- immobility time, Average [4, 6]: 77.3 s
- % of variation of immobility time [4, 6]: −49%
- Dunnett test ([4]; 10 mg/kg alone, intraperitoneally, vs excipient group): * (* indicates a significant difference for p < 0.05 (Dunnett test))
- duration of immobilisation as compared to the sample group (in words) [4]: decrease, statistically insignificant

SMILES: CNCCC(Oc1ccc(C(F)(F)F)cc1)c1ccccc1 (stereo not shown) [Fluoxetine, fluoxetine]
- duration of immobilisation as compared to the sample group (in words) [4]: decrease, statistically insignificant

SMILES: CN(C)CCCN1c2ccccc2CCc2ccccc21 [Imipramine, imipramine]
- duration of immobilisation as compared to the sample group (in words) [1]: decrease, statistically insignificant
